Assay results from BindingDB's records for doi:10.1016/j.bmcl.2013.06.023 (Northwest Agriculture & Forestry University, 2013).
pIC50: −log10 of the molar value.

Experiments:
[1] = target: T1, G protein-activated inward rectifier potassium channel 1 (Homo sapiens, UniProt P48549); assay: Inhibition of GIRK1/2 (unknown origin)
T1 sequence (P48549 whole entry): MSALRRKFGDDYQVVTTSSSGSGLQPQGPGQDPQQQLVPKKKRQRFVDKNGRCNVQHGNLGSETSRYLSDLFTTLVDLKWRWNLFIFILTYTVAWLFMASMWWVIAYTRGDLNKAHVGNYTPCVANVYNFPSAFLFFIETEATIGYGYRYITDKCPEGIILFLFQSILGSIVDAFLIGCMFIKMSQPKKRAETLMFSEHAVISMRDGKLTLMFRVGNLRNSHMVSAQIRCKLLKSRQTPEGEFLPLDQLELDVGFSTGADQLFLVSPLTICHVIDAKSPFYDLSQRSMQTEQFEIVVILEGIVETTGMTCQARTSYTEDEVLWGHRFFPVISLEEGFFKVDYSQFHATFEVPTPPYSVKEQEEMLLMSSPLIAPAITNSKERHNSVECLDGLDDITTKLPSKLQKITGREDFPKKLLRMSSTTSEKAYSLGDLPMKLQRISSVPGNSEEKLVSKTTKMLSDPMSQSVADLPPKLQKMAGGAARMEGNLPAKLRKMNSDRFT

[2] = target: T2, G protein-activated inward rectifier potassium channel 4 (Homo sapiens, UniProt P48544); assay: Inhibition of GIRK1/4 (unknown origin)
T2 sequence (P48544 whole entry): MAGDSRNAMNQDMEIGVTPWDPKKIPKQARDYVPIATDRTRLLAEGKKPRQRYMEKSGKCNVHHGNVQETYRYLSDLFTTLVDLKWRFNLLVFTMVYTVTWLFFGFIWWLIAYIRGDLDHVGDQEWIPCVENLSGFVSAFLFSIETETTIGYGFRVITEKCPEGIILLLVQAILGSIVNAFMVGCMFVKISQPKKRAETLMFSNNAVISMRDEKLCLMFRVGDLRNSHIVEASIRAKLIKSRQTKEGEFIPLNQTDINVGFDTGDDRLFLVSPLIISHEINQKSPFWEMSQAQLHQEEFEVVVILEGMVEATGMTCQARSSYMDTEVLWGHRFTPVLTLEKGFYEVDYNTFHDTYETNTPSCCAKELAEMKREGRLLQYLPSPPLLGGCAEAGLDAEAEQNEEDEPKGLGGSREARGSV

SMILES	pIC50 [1]	pIC50 [2]
O=C(Nc1ccc(F)c(F)c1)Nc1cc(C2CCC2)nn1-c1ccccc1	4.52	4.52
O=C(Nc1ccc(F)c(F)c1)Nc1cc(C(F)(F)F)nn1-c1ccccc1	4.52	4.52
O=C(Nc1ccc(F)c(F)c1)Nc1cc(-c2ccccc2)nn1-c1ccccc1	4.52	4.52
